One may read the IC50 as the concentration at which inhibition is half-maximal.

Like-named read-outs stand apart in the source and are kept apart here.

One assay has as its target BRD4 BD1 (Homo sapiens (Human), UniProt O60885). Briefly: NanoBRET bromodomain assay, NanoLuc-BRD4-BD1 fusion in HEK293 cells. Type of assay: cell-based. The settings on record: top concentration 10 μM.
The next assay deals with BRD4 BD2 (Homo sapiens (Human), UniProt O60885). Briefly: NanoBRET bromodomain assay, NanoLuc-BRD4-BD2 fusion in HEK293 cells.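 As to all read-outs here: tracer displacement BRET read in transfected cells after 2 h compound exposure at 37 °C, signal in milliBRET units corrected against no-tracer background wells.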 The settings on record: for IC50: NanoBRET, HEK293 cells, top concentration 10 μM; for Fold selectivity: IC50 for BRD4 BD1 divided by IC50 for BRD4 BD2, qualitative if an IC50 is at the upper limit.

Consider `CCNC(=O)c1cc(OC(C)c2ccc(Br)cc2)c(C(=O)NC)[nH]1` (single isomer, unassigned) [Example 50, 3-(1-(4-bromophenyl)ethoxy)-N^5-ethyl-N^2-methyl-1H-pyrrole-2,5-dicarboxamide], for which the half-maximal inhibitory concentration (IC50) is no less than 10 µM on BRD4 BD1 and greater than 10 µM on BRD4 BD2 (BRD4 BD2 (IC50)). Moreover, the Fold selectivity result on BRD4 BD2 is “— (Fold ≥0 and ≤2)”.
With `CCNC(=O)c1cc(OC(C)c2ccccc2F)c(C(=O)NC)[nH]1` (single isomer, unassigned) [Example 21, N^5-ethyl-3-(1-(2-fluorophenyl)ethoxy)-N^2-methyl-1H-pyrrole-2,5-dicarboxamide], the IC50 at BRD4 BD1 was no less than 10 µM; against BRD4 BD2 (BRD4 BD2 (IC50)) it was greater than 10 µM. Further, at BRD4 BD2, the Fold selectivity entry was “— (Fold ≥0 and ≤2)”.
Consider `CCNC(=O)c1cc(OC(CO)c2ccccc2)c(C(=O)NC)[nH]1` (racemic) [Example 73, N^5-ethyl-3-(2-hydroxy-1-phenylethoxy)-N^2-methyl-1H-pyrrole-2,5-dicarboxamide], for which the IC50 against BRD4 BD1 is no less than 10 µM; at BRD4 BD2 (BRD4 BD2 (IC50)), 1 to 10 µM. In addition, the Fold selectivity result at BRD4 BD2 was “X (Fold >2 and ≤50)”.
With `CNC(=O)c1[nH]c(C(=O)NCC(F)(F)F)cc1O[C@@H](C)c1ccc(Cl)cc1` [Example 60, (S)-3-(1-(4-chlorophenyl)ethoxy)-N^2-methyl-N^5-(2,2,2-trifluoroethyl)-1H-pyrrole-2,5-dicarboxamide], the IC50 against BRD4 BD1 is no less than 10 µM; against BRD4 BD2 (BRD4 BD2 (IC50)), 0.05 to 0.2 µM. Besides, the Fold selectivity result on BRD4 BD2 is “XX (Fold >50 and ≤200)”.
Turning to `CCNC(=O)c1cc(OC(c2ccccc2)C2CC2)c(C(=O)NC)[nH]1` (racemic) [Example 63, 3-(cyclopropyl(phenyl)methoxy)-N^5-ethyl-N^2-methyl-1H-pyrrole-2,5-dicarboxamide], the half-maximal inhibitory concentration (IC50) at BRD4 BD1 is no less than 10 µM; at BRD4 BD2 (BRD4 BD2 (IC50)) it was greater than 10 µM. Moreover, the Fold selectivity result on BRD4 BD2 is “— (Fold ≥0 and ≤2)”.
Regarding `CCNC(=O)c1cc(OC(C)c2ccc(OC)cc2)c(C(=O)NC)[nH]1` (single isomer, unassigned) [Example 76, N^5-ethyl-3-(1-(4-methoxyphenyl)ethoxy)-N^2-methyl-1H-pyrrole-2,5-dicarboxamide], the IC50 is no less than 10 µM on BRD4 BD1 and greater than 10 µM against BRD4 BD2 (BRD4 BD2 (IC50)). Also, at BRD4 BD2, the Fold selectivity entry was “— (Fold ≥0 and ≤2)”.
Take “(S)—N^2-ethyl-4-(1-(2-fluorophenyl) ethyl)-N^5,3-dimethyl-1H-pyrrole-2,5-dicarboxamide [Example 74]”: the IC50 against BRD4 BD1 is no less than 10 µM; on BRD4 BD2 (read-out: BRD4 BD2 (IC50)), 1 to 10 µM. The Fold selectivity result on BRD4 BD2 was “X (Fold >2 and ≤50)”.
Regarding `CCNC(=O)c1cc(OC(CCOC)c2ccccc2)c(C(=O)NC)[nH]1` (racemic) [Example 8, N^5-ethyl-3-(3-methoxy-1-phenylpropoxy)-N^2-methyl-1H-pyrrole-2,5-dicarboxamide], the half-maximal inhibitory concentration (IC50) was no less than 10 µM on BRD4 BD1 and greater than 10 µM at BRD4 BD2 (BRD4 BD2 (IC50)). For the same compound, the Fold selectivity entry at BRD4 BD2 is “— (Fold ≥0 and ≤2)”.
Regarding `CNC(=O)c1[nH]c(C(=O)NC2CCC2)cc1OC(C)c1ccc(Cl)cc1` (single isomer, unassigned) [Example 28, 3-(1-(4-chlorophenyl)ethoxy)-N^5-cyclobutyl-N^2-methyl-1H-pyrrole-2,5-dicarboxamide], the Fold selectivity result on BRD4 BD2 is “— (Fold ≥0 and ≤2)”.
Same read-out and setting: the same measure for `CNC(=O)c1[nH]c(C(=O)N[C@H]2CC[C@H](O)CC2)cc1O[C@@H](C)c1ccnnc1` (single isomer, unassigned) [Example 92, N^5-(4-hydroxycyclohexyl)-N^2-methyl-3-(1-(pyridazin-4-yl)ethoxy)-1H-pyrrole-2,5-dicarboxamide]: “— (Fold ≥0 and ≤2)”.
Turning to `CCNC(=O)c1cc(OC(C)c2c(C)cccc2C)c(C(=O)NC)[nH]1` (single isomer, unassigned) [Example 64, 3-(1-(2,6-dimethylphenyl)ethoxy)-N^5-ethyl-N^2-methyl-1H-pyrrole-2,5-dicarboxamide], the Fold selectivity result at BRD4 BD2 was “— (Fold ≥0 and ≤2)”.

The record behind these values is patent US20250263370A1 (Tay Therapeutics Limited, priority 2022, published 2025).
